The results in this text go back to patent US20230096085A1 (priority 2020, published 2023).

This test deals with rice blast fungus. It counts as cell-based. Particulars: for Preventive value: 1,000 μl on oatmeal culture medium, 25° C. for 7 days, elongation length of hyphae vs without treatment.

Read-outs that look alike come from different tables or passages of the source.

Consider `COc1nc(-c2ccc3cnccc3n2)nc(F)c1C(F)(F)F` [Example 4, 6-fluoro-4-methoxy-2-(2-(1,6-naphthyridyl))-5-trifluoromethylpyrimidine], for which, for the setting “conclusion from the results in Table 1”, the “control activity against rice blast fungus” value is given as “has a control activity against rice blast fungus”. Besides, the Preventive value (test solution concentration 1000 ppm) turned out to be 76 and the Preventive value (test solution concentration 2000 ppm) is 100.
